# US9945845B2, “Methods of screening using amphibians” (priority 2009, dated 2018)
# Entries after “also recorded” stand apart in the source; their conditions may differ.
# Legend:
# Xenopus embryos = system: Xenopus embryos
# Method in brief: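 Stage 31 (37 hpf) Xenopus embryos, five per well, exposed to 20 µM compound in 1% DMSO at 23 °C for 4 days. Edema, lethality and other external phenotypes were scored daily by two investigators at stages 39, 41, 45 and 47.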
# [1] = system: blood vessel development and/or lymphangiogenesis in Xenopus embryos; format: in vivo, Xenopus laevis
# Method in brief: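 Albino Xenopus embryos treated at 20 μM final (from 10-mM DMSO stocks) in screening medium, 7 per well, from stage 31 (37 hpf) to stage 35/36 (50 hpf) or 42 (80 hpf). Fixed in 4% paraformaldehyde and scored by whole-mount in situ hybridization: vasculogenesis and intersomitic vein angiogenesis at stage 35/36, lymph vessel development at stage 42.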
# LEC [2] = test: LEC cell proliferation assay; format: cell-based, human; conditions: 10 μM in 0.1% DMSO, 48 hours
# Method in brief: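 HUVEC and LEC in EBM with 20% FBS, hydrocortisone and dibutyryl-cAMP were treated with compound at 10 μM in 0.1% DMSO for 48 hours. Viable cells read by fluorescence, in five replicates.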
# HUVEC = HUVEC tube formation assay; format: cell-based, human; conditions: 1 μM in 0.1% DMSO, overnight
# Method in brief: (§1)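 HUVEC and LEC in EBM with 20% FBS, hydrocortisone and dibutyryl-cAMP, up to eleven passages, treated overnight at 37 °C with compound at 1 μM in 0.1% DMSO, then fixed in 4% paraformaldehyde. Read-out: total tube length (μm) per area over three hotspot images per well, triplicate wells.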
# LEC [3] = test: cells; format: cell-based, human; conditions: 1 μM in 0.1% DMSO, overnight
# Method in brief: as §1
# [4] = system: transgenic zebrafish expressing a fluorescent vascular reporter gene; conditions: Tran et al., 2007, cited from earlier work
smiles,measurement,setting,value
"CN(C)c1ccc(C=C2C(=O)Nc3ccccc32)cc1 [SU 4312, 3-(4-Dimethylaminobenzylidenyl)-2-indolinone]",scored in the phenotypic Xenopus screens,"Xenopus embryos; 20 μM, known antiangiogenic compounds",active
same,Embr. phen.,Xenopus embryos; embryonic phenotype in the primary screen,EDE
same,Type of edema Pronephric,Xenopus embryos; embryonic stage,45 embryonic stages according to Nieuwkoop and Faber (NF)
same,Type of edema Periocular,"Xenopus embryos; embryonic stage, * = causing bulging eyes, # = bilateral, causing narrow-set eyes",45 embryonic stages according to Nieuwkoop and Faber (NF)
same,Type of edema Ventral,"Xenopus embryos; embryonic stage, ‡ = edemas also detected in the gut",45 embryonic stages according to Nieuwkoop and Faber (NF)
same,Onset (NF),"Xenopus embryos; onset of edema, 20 μM, 1% DMSO, treatment from stage 31, Nieuwkoop & Faber stage",45 NF
same,"blood vessel development phenotype (apj expression, in words)","[1]; 20 μM from stage 31, fixed at stage 35/36",largely unaffected; also recorded: normal angiogenic ISV outgrowth
same,"lymph vessel development phenotype (vegfr3 expression, in words)","[1]; 20 μM from stage 31, fixed at stage 42",inhibiting preferentially lymphatic vascular development; also recorded: lymphangiogenesis was largely suppressed; also recorded: robustly blocks lymphangiogenesis
same,Blood vessel phenotype,[1]; Xenopus embryos,normal
same,ALH phenotype,"[1]; anterior lymph heart, Xenopus embryos",impaired
same,ALS phenotype,"[1]; anterior lymph sac, Xenopus embryos",impaired
same,PLV phenotype,"[1]; posterior lymph vessels, Xenopus embryos",hypoplastic
same,LEC proliferation,LEC [2],"O (O, inactive or marginal effects (85-115% of control);)"
same,HUVEC tube formation,HUVEC,"O (O, inactive or marginal effects (85-115% of control);)"
same,LEC tube formation,LEC [3],"O (O, inactive or marginal effects (85-115% of control);)"
same,recovery as antiangiogenic compound in the transgenic zebrafish screen,[4],recovery
same,antiangiogenic effects in zebrafish,[4]; at higher concentrations (>30 μM),moderate antiangiogenic effects
